The source made the active and inactive calls. No rule for the calls is given here.
Tested on: CCRIS mutagenicity, Ames/micronucleus/aberration tests
Test: CCRIS mutagenicity studies
[1] = Test System: AMES SALMONELLA TYPHIMURIUM, Strain/Indicator: TA98, Metabolic Activation: NONE, Method: STANDARD PLATE
[2] = Test System: AMES SALMONELLA TYPHIMURIUM, Strain/Indicator: TA98, Metabolic Activation: RAT, LIVER, S-9, AROCLOR 1254, Method: STANDARD PLATE
[3] = Test System: AMES SALMONELLA TYPHIMURIUM, Strain/Indicator: TA100, Metabolic Activation: NONE, Method: STANDARD PLATE
[4] = Test System: AMES SALMONELLA TYPHIMURIUM, Strain/Indicator: TA100, Metabolic Activation: RAT, LIVER, S-9, AROCLOR 1254, Method: STANDARD PLATE
[5] = Test System: AMES SALMONELLA TYPHIMURIUM, Strain/Indicator: TA1535, Metabolic Activation: NONE, Method: STANDARD PLATE
[6] = Test System: AMES SALMONELLA TYPHIMURIUM, Strain/Indicator: TA1535, Metabolic Activation: RAT, LIVER, S-9, AROCLOR 1254, Method: STANDARD PLATE
[7] = Test System: AMES SALMONELLA TYPHIMURIUM, Strain/Indicator: TA1537, Metabolic Activation: NONE, Method: STANDARD PLATE
[8] = Test System: AMES SALMONELLA TYPHIMURIUM, Strain/Indicator: TA1537, Metabolic Activation: RAT, LIVER, S-9, AROCLOR 1254, Method: STANDARD PLATE
[9] = Test System: AMES SALMONELLA TYPHIMURIUM, Strain/Indicator: TA1538, Metabolic Activation: NONE, Method: STANDARD PLATE
[10] = Test System: AMES SALMONELLA TYPHIMURIUM, Strain/Indicator: TA1538, Metabolic Activation: RAT, LIVER, S-9, AROCLOR 1254, Method: STANDARD PLATE
[11] = Test System: CHINESE HAMSTER V-79, Strain/Indicator: V-79/8-AZAGUANINE, Metabolic Activation: NONE, Method: STANDARD PLATE
[12] = Test System: AMES SALMONELLA TYPHIMURIUM, Strain/Indicator: TA100, Metabolic Activation: NONE, Method: PREINCUBATION

With `CC(CN1CC(=O)NC(=O)C1)N1CC(=O)NC(=O)C1` (configuration not stated) the mutagenic call [1] was “inactive; negative”, the mutagenic call [2] was “inactive; negative” and the mutagenic call [3] was “inactive; negative”. For the same molecule, the mutagenic call [4] was “inactive; negative”, the mutagenic call [5] was “inactive; negative” and the mutagenic call [6] was “inactive; negative”. For the same molecule, the mutagenic call [7] was “inactive; negative”, the mutagenic call [8] was “inactive; negative” and the mutagenic call [9] was “inactive; negative”. For the same molecule, the mutagenic call [10] was “inactive; negative”, the mutagenic call [11] was “active; positive” and the mutagenic call (Test System: MOUSE LYMPHOMA, Strain/Indicator: L5178Y (TK+/TK-), Metabolic Activation: NONE, Method: SUSPENSION/PLATE) was “active; positive”.

For `O[C@H]1C=Cc2c(ccc3ncccc23)[C@@H]1O`, the mutagenic call [4] was “inactive; negative”.

In the case of `Nc1ccc2cc(S(=O)(=O)O)c(N=Nc3ccc(N=Nc4ccc(NCCO)cc4NCCO)cc3OCCO)c(O)c2c1`, the mutagenic call [1] was “inactive; negative”, the mutagenic call [2] was “active; positive” and the mutagenic call [3] was “inactive; negative”. The mutagenic call [4] was “inactive; negative”, the mutagenic call [9] was “inactive; negative” and the mutagenic call [10] was “active; positive”.

In the case of `CCC(=O)C1c2cccc(O)c2C(=O)c2c(O)cccc21`, the mutagenic call [7] was “active; positive”, the mutagenic call (Test System: AMES SALMONELLA TYPHIMURIUM, Strain/Indicator: TA1537, Metabolic Activation: RAT, LIVER, S-9, PHENOBARBITAL AND BETA-NAPHTHOFLAVONE, Method: STANDARD PLATE) was “active; positive” and the mutagenic call (Test System: E. COLI, Strain/Indicator: WP2, Metabolic Activation: NONE, Method: STANDARD PLATE) was “inactive; negative”. The mutagenic call (Test System: E. COLI, Strain/Indicator: WP2, Metabolic Activation: RAT, LIVER, S-9, AROCLOR 1254, Method: STANDARD PLATE) was “inactive; negative”, the mutagenic call (Test System: E. COLI, Strain/Indicator: WP2 UVRA, Metabolic Activation: NONE, Method: STANDARD PLATE) was “inactive; negative” and the mutagenic call (Test System: E. COLI, Strain/Indicator: WP2 UVRA, Metabolic Activation: RAT, LIVER, S-9, AROCLOR 1254, Method: STANDARD PLATE) was “inactive; negative”.

For `CN(N=O)C(=O)NC1O[C@H](CO)[C@@H](O)[C@H](O)[C@H]1O` (some centres not stated), the mutagenic call [11] was “active; positive”.

With `COc1cc(-c2cc(=O)c3c(O)cc(O)cc3o2)ccc1O` the mutagenic call (Test System: Ames Salmonella typhimurium, Strain/Indicator: TA98, Metabolic Activation: None, Method: Standard plate) was “inactive; negative” and the mutagenic call (Test System: Ames Salmonella typhimurium, Strain/Indicator: TA98, Metabolic Activation: Rat, Liver, S-9, Aroclor 1254, Method: Standard plate) was “inactive; negative”.

For `CCCCCCCCCCSCn1cc[n+](C)c1`, the mutagenic call [1] was “inactive; negative”, the mutagenic call [2] was “inactive; negative” and the mutagenic call [3] was “inactive; negative”. The mutagenic call [4] was “active; positive”, the mutagenic call [5] was “inactive; negative” and the mutagenic call [6] was “active; positive”. For the same molecule, the mutagenic call [7] was “inactive; negative”, the mutagenic call [8] was “inactive; negative” and the mutagenic call [9] was “inactive; negative”. The mutagenic call [10] was “inactive; negative”.

For `C=CCN(CC=C)CC=C`, the mutagenic call (Test System: AMES SALMONELLA TYPHIMURIUM, Strain/Indicator: TA98, Metabolic Activation: HAMSTER, LIVER, S-9, AROCLOR 1254 (10%), Method: PREINCUBATION) was “inactive; negative”, the mutagenic call (Test System: AMES SALMONELLA TYPHIMURIUM, Strain/Indicator: TA98, Metabolic Activation: NONE, Method: PREINCUBATION) was “inactive; negative” and the mutagenic call (Test System: AMES SALMONELLA TYPHIMURIUM, Strain/Indicator: TA98, Metabolic Activation: RAT, LIVER, S-9, AROCLOR 1254 (10%), Method: PREINCUBATION) was “inactive; negative”. For the same molecule, the mutagenic call (Test System: AMES SALMONELLA TYPHIMURIUM, Strain/Indicator: TA100, Metabolic Activation: HAMSTER, LIVER, S-9, AROCLOR 1254 (10%), Method: PREINCUBATION) was “inactive; negative”, the mutagenic call [12] was “inactive; negative” and the mutagenic call (Test System: AMES SALMONELLA TYPHIMURIUM, Strain/Indicator: TA100, Metabolic Activation: RAT, LIVER, S-9, AROCLOR 1254 (10%), Method: PREINCUBATION) was “inactive; negative”. For the same molecule, the mutagenic call (Test System: AMES SALMONELLA TYPHIMURIUM, Strain/Indicator: TA1535, Metabolic Activation: HAMSTER, LIVER, S-9, AROCLOR 1254 (10%), Method: PREINCUBATION) was “inactive; negative”, the mutagenic call (Test System: AMES SALMONELLA TYPHIMURIUM, Strain/Indicator: TA1535, Metabolic Activation: NONE, Method: PREINCUBATION) was “inactive; negative” and the mutagenic call (Test System: AMES SALMONELLA TYPHIMURIUM, Strain/Indicator: TA1535, Metabolic Activation: RAT, LIVER, S-9, AROCLOR 1254 (10%), Method: PREINCUBATION) was “inactive; negative”. The mutagenic call (Test System: AMES SALMONELLA TYPHIMURIUM, Strain/Indicator: TA1537, Metabolic Activation: HAMSTER, LIVER, S-9, AROCLOR 1254 (10%), Method: PREINCUBATION) was “inactive; negative”, the mutagenic call (Test System: AMES SALMONELLA TYPHIMURIUM, Strain/Indicator: TA1537, Metabolic Activation: NONE, Method: PREINCUBATION) was “inactive; negative” and the mutagenic call (Test System: AMES SALMONELLA TYPHIMURIUM, Strain/Indicator: TA1537, Metabolic Activation: RAT, LIVER, S-9, AROCLOR 1254 (10%), Method: PREINCUBATION) was “inactive; negative”.

`CCCC/C=C/C=C/C=C/C=C/C=C/OC[C@@H](O)CO` was tested, and the mutagenic call [12] was “active; positive” and the mutagenic call (Test System: AMES SALMONELLA TYPHIMURIUM, Strain/Indicator: TA100, Metabolic Activation: RAT, LIVER, S-9, AROCLOR 1254, Method: PREINCUBATION) was “active; positive”.
